Reference: article PMC10746280, “Bacterial efflux pump modulators prevent bacterial growth in macrophages and under broth conditions that mimic the host environment” (mBio, 2023)

Experiments:
[1] = test system: S. Typhimurium SL1344 (sifB::gfp) in RAW 264.7 macrophages; assay: SAFIRE macrophage assay: intracellular bacterial load (GFP signal within macrophages); type: cell-based, Salmonella enterica serotype Typhimurium; settings: for IC50: Salmonella enterica, TYPHIMURIUM, RAW264.7, read-out: SAFIRE IC50
How it was run: (§1)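 RAW 264.7 macrophages infected with S. Typhimurium SL1344 sifB::gfp (MOI ~30), gentamicin 40 µg/mL, then compound from 2 h to 18 h post-infection. Confocal imaging with MitoTracker and DAPI; toxicity as adherent MitoTracker-positive macrophage count, bacterial load as GFP+ macrophage area.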

[2] = test system: RAW 264.7 macrophages; assay: SAFIRE macrophage assay: host toxicity (adherent macrophage count, morphology); type: cell-based
How it was run: as §1

[3] = test system: S. Typhimurium; assay: Checkerboard growth assays with antibiotics in LPM 5.5 (FICI and MuSyC analyses); type: cell-based; parameters: Antibiotic MIC Combination: unit not given here; EPM MIC Combination: unit: µM; settings: for log10(α1) [95% CI] (log-fold-change in potency of EPM due to the antibiotic) / log10(α2) [95% CI] (log-fold-change in potency of the antibiotic due to the EPM) / Βobs [95% CI] (proportion increase in maximal efficacy of the antibiotic): MuSyC fit; for Antibiotic MIC Combination / EPM MIC Combination / FICI value: LPM 5.5
Method: To examine whether the EPM analogs interact additively or synergistically with antibiotics, checkerboard growth assays were carried out in LPM 5.5. We compared three antibiotics (ciprofloxacin, doxycycline, erythromycin) and three EPM analogs (CU032, CU187, CU232) and the EPM35 parent compound (Fig. 6A). Standard fractional inhibitory concentration index (FICI) analyses supported synergy between the EPM analogs and ciprofloxacin (Fig. 6B). Since FICI values cannot distinguish between synergy due to changes in potency (activity) versus efficacy (the extent of the effect) ([42], [43]), we used the MuSyC synergy algorithm to measure EPM-antibiotic synergy ([44], [45]). The data were well fit by the MuSyC equation, with an R^2 of greater than 0.96 for all checkerboards (Table S2). […] Moreover, the consistency in the synergy of potency values across the antibiotics with different EPM analogs points toward a shared mechanism of action: the EPMs could modify the pharmacodynamics of the efflux process and prevent export of specific substrates through interactions with AcrB. We posit that the EPMs differentially reduce antibiotic export resulting in a higher effective intracellular concentration of the antibiotic.
Overnight cation-adjusted MHB-grown cultures of SL1344 or SA10801 were diluted in MHB or LPM 5.5 to an optical density at 600 nm (OD600) of 0.01 and distributed into polystyrene 96-well flat-bottom plates. EPM analogs were added at concentrations up to 300 µM, near the limit of solubility. The antibiotics ciprofloxacin, doxycycline, and erythromycin were added up to concentrations of 2 µM, 2 µM, and 8 µM, respectively. The final DMSO concentration was at or below 2% in all wells. Plates were grown at 37°C with shaking for 18 h and OD600 was monitored (BioTek Synergy H1, BioTek Eon). Each experiment was performed with biological triplicate or higher as indicated. Percent growth was determined by normalizing to OD600 reads in wells containing no D66 or antibiotic. Checkerboards in LPM 5.5 medium were performed with culture grown overnight in LB and diluted to an OD600 of 0.01 in LPM 5.5 and compounds/antibiotics were added as previously described. MuSyC analysis was pursued as previously described ([44], [45]). Briefly, the 2D Hill equation was fit to the normalized growth inhibition data from the checkerboards using a bounded non-linear least square regression algorithm. A Monte Carlo sampling method was used to compute the 95% CI in the parameter fits from three biological replicates. The bounds on the parameters minimal and maximal efficacy of the antibiotics and EPMs (E0,Emax) were [0.99,1.01] and [0,1], respectively ([44], [45]).

[4] = 25 uM, 'Toxic' given instead of a score
[5] = ciprofloxacin (CIPRO) MIC in combination with the EPM
[6] = doxycycline (DOXY) MIC in combination with the EPM
[7] = 5 uM compound, n=1, DMSO solvent control = 98, rifampicin 2 μg/mL = 65
[8] = 25 uM compound, n=1, DMSO solvent control = 98, rifampicin 2 μg/mL = 65
[9] = 5 uM compound, n=1, DMSO solvent control = 100
[10] = 25 uM compound, n=1, DMSO solvent control = 100

SMILES | 25 uM Avg Antibacterial Score [1, 4] | IC50 [1] | 5 uM Avg Cell # Score ([2]; 5 uM) | log10(α1) [95% CI] (log-fold-change in potency of EPM due to the antibiotic) ([3]; Ciprofloxacin) | log10(α2) [95% CI] (log-fold-change in potency of the antibiotic due to the EPM) ([3]; Ciprofloxacin) | Βobs [95% CI] (proportion increase in maximal efficacy of the antibiotic) ([3]; Ciprofloxacin) | log10(α1) [95% CI] (log-fold-change in potency of EPM due to the antibiotic) ([3]; Doxycycline) | log10(α2) [95% CI] (log-fold-change in potency of the antibiotic due to the EPM) ([3]; Doxycycline) | Βobs [95% CI] (proportion increase in maximal efficacy of the antibiotic) ([3]; Doxycycline) | log10(α1) [95% CI] (log-fold-change in potency of EPM due to the antibiotic) ([3]; Erythromycin) | log10(α2) [95% CI] (log-fold-change in potency of the antibiotic due to the EPM) ([3]; Erythromycin) | Βobs [95% CI] (proportion increase in maximal efficacy of the antibiotic) ([3]; Erythromycin) | Antibiotic MIC Combination [3, 5] | Antibiotic MIC Combination [3, 6] | EPM MIC Combination ([3]; with ciprofloxacin (CIPRO)) | FICI value ([3]; with ciprofloxacin (CIPRO)) | EPM MIC Combination ([3]; with doxycycline (DOXY)) | FICI value ([3]; with doxycycline (DOXY)) | EPM MIC Combination ([3]; with erythromycin (ERY)) | FICI value ([3]; with erythromycin (ERY)) | other results
NC1CCN(CC(O)COc2ccc(Cl)c(Cl)c2)C1 (stereo not shown) [CU032] | 21 | 17.4 nM | 95 | 0.0 [-0.42,0.07] | 1.52 [1.32,1.56] | 0.07 [0.05,0.1 ] | -0.06 [-0.3,0.04] | 0.25 [0.17,0.28] | 0.0 [-0.01,0.01] | 0.08 [-0.23,0.05] | 1.11 [0.98,1.11] | 0.04 [0.04,0.07] | 1 | 2 | 30 | 0.35 | 100 | 0.55 | 100 | 0.58 | 5 uM Avg Antibacterial Score ([1]; 5 uM, 'Toxic' given instead of a score): 55; 25 uM Avg Cell # Score ([2]; 25 uM): 95
NC1CCN(CC(O)COc2cccc(C(F)(F)F)c2)CC1 (stereo not shown) [CU232] | – | 6.9 nM | – | 0.34 [0.18,0.38] | 1.87 [1.73,1.85] | 0.0 [-0.02,0.03] | 0.14 [-0.23,0.33] | 0.16 [0.06,0.19] | 0.02 [-0.01,0.02] | -0.02 [-0.35,-0.05] | 1.38 [1.11,1.44] | 0.06 [0.05,0.07] | 1 | 2 | 44 | 0.4 | 100 | 0.58 | 100 | 0.58 | 5 uM Avg Antibacterial Score [1, 7]: 37; 25 uM Avg Antibacterial Score [1, 8]: 21; 5 uM Avg Cell # Score [2, 9]: 124; 25 uM Avg Cell # Score [2, 10]: 113
OC(CN[C@H]1[C@@H]2CNC[C@@H]21)COc1cc(Cl)cc(Cl)c1 (stereo partly shown) [CU244] | – | 372 nM | – | – | – | – | – | – | – | – | – | – | – | – | – | – | – | – | – | – | 5 uM Avg Antibacterial Score [1, 7]: 48; 25 uM Avg Antibacterial Score [1, 8]: 19; 5 uM Avg Cell # Score [2, 9]: 121; 25 uM Avg Cell # Score [2, 10]: 108
OC(COc1ccc(Cl)c(Cl)c1)CN1CCC(Nc2nccc(C(F)(F)F)n2)CC1 (stereo not shown) [EPM35] | Toxic | 3450 nM | 98 | 0.58 [0.17,0.77] | -0.12 [-0.22,0.03] | 0.01 [-0.01,0.01] | 0.7 [0.41,0.87] | 0.43 [0.31,0.39] | -0.01 [-0.04,-0.01] | 0.49 [0.15,0.74] | -0.01 [-0.06,0.03] | 0.01 [-0.01,0.01] | 1 | 2 | 150 | 0.7 | 150 | 1 | 150 | 1 | 5 uM Avg Cell # Score ([2]; 5 uM, listed as CU035): 107; 25 uM Avg Cell # Score ([2]; 25 uM): 72; 25 uM Avg Cell # Score ([2]; 25 uM, listed as CU035): 134; synergy with antibiotics ([3]; checkerboards in LPM 5.5): did not synergize with the antibiotics
